Measurements as given in patent US8119661B2, “Piperidine derivatives and their use as muscarinic receptor modulators” (AstraZeneca AB, priority 2007, dated 2012).

Legend:
cloned human M2 receptor = target: T1, cloned human M2 receptor (Homo sapiens, UniProt P08172); assay: hM2 receptor GTPγS binding; assay type: biochemical; conditions: CHO membranes expressing hM2, [35S]GTPγS binding
T1 construct: purchased Perkin-Elmer RBHM2M; host or cells: CHO cell membranes
T1 sequence (P08172 1-466): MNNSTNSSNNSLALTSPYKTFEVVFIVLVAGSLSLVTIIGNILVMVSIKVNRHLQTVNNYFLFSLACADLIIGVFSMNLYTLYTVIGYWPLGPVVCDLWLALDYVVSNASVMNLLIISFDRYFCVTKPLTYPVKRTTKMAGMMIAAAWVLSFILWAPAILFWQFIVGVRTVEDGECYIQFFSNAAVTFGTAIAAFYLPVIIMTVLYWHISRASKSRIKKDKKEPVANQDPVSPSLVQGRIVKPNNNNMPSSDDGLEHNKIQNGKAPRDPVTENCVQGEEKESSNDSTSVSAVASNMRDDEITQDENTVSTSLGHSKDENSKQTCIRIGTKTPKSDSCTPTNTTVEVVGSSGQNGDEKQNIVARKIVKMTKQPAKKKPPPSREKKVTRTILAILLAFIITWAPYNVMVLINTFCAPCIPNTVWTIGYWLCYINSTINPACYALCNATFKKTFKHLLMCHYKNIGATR
Procedure: Membranes produced from Chinese hamster ovary cells (CHO) expressing the cloned human M2 receptor (human Muscarinic receptor subtype 2, gene bank access NM_000739), are obtained from Perkin-Elmer (RBHM2M). The membranes are thawed at 37° C., passed 3 times through a 23-gauge blunt-end needle, diluted in the GTPγS binding buffer (50 mM Hepes, 20 mM NaOH, 100 mM NaCl, 1 mM EDTA, 5 mM MgCl2, pH 7.4, 100 μM DTT). The EC50, IC50 and Emax of the compounds of the invention are evaluated from 10-point dose-response curves (three fold concentration range) done in 60 μl in 384-well non-specific binding surface plate (Corning). Ten microliters from the dose-response curves plate (5× concentration) are transferred to another 384 well plate containing 25 μl of the following: 5 μg of hM2 membranes, 500 μg of Flashblue beads (Perkin-Elmer) and GDP 25 μM. An additional 15 μl containing 3.3× (60,000 dpm) of GTPγ^35S (0.4 nM final) are added to the wells resulting in a total well volume of 50 μl. Basal and maximal stimulated [^35S]GTPγS binding are determined in absence and presence of 30 μM final of acetylcholine agonist. The membranes/beads mix are pre-incubated for 15 minutes at room temperature with 25 μM GDP prior to distribution in plates (12.5 μM final). The reversal of acetylcholine-induced stimulation (2 μM final) of [^35S]GTPγS binding is used to assay the antagonist properties (IC50) of the compounds. The plates are incubated for 60 minutes at room temperature then centrifuged at 400 rpm for 5 minutes. The radioactivity (cpm) is counted in a Trilux (Perkin-Elmer).
Values of EC50, IC50 and Emax are obtained using sigmoidal fits of a non-linear curve-fitting program (XLfit version 4.2.2 Excel add-in version 4.2.2 build 18 math 1Q version 2.1.2 build 18) of percent stimulated [^35S]GTPγS binding vs. log(molar ligand). All pEC50 and pIC50 values are reported as arithmetic means±standard error of mean of ‘n’ independent experiments.

[1] = target: T2, hM5 (human Muscarinic receptor subtype 5) (Homo sapiens, UniProt P08912); assay: Human M5 calcium mobilization FLIPR assay; assay type: cell-based; conditions: CHO cells expressing hM5, intracellular Ca2+ release
T2 construct: expressed in transfected cells; host or cells: CHO cells (Chinese hamster ovary cells, ATCC)
T2 sequence (P08912 1-532): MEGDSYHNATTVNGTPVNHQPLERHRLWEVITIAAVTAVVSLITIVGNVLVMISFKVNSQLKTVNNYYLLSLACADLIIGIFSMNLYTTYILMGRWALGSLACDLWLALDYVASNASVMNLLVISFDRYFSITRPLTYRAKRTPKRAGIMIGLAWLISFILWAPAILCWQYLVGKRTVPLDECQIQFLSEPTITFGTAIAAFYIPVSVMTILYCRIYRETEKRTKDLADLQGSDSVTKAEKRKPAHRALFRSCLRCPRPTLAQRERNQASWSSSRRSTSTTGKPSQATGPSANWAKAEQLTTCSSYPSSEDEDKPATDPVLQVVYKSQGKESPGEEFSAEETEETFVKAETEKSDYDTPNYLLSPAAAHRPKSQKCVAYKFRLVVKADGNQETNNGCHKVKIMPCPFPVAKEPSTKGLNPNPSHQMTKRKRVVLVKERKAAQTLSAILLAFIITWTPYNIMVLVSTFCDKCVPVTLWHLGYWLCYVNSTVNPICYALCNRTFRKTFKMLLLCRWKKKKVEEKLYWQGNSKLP
Procedure: The compound activity in the present invention (EC50 or IC50) is measured using a 384 plate-based imaging assay that monitors drug induced intracellular Ca^2+ release in whole cells. Activation of hM1 (human Muscarinic receptor subtype 1, gene bank access NM_000738), rM1 (rat Muscarinic receptor subtype 1, gene bank access NM_080773), hM3 (human Muscarinic receptor subtype 3, gene bank access NM_000740NM_000740) and hM5 (human Muscarinic receptor subtype 5, gene bank access NM_0121258), receptors expressed in CHO cells (Chinese hamster ovary cells, ATCC) is quantified in a Molecular Devices FLIPR II™ instrument as an increase in fluorescent signal. Inhibition of hM3 and hM5 by compounds is determined by the decrease in fluorescent signal in response to 2 nM acetylcholine activation.
Prior to experiment, the cell culture medium is removed from the plates by inversion. […] Plates are incubated at 37° C. for 60 minutes prior to start the experiment. The incubation is terminated by washing the cells four times in assay buffer, leaving a residual 25 μl buffer per well. Cell plates are then transferred to the FLIPR, ready for compound additions.
The day of experiment, acetylcholine and compounds are diluted in assay buffer in three-fold concentration range (10 points serial dilution) for addition by FLIPR instrument. For all calcium assays, a baseline reading is taken for 10 seconds followed by the addition of 12.5 μl of compounds, resulting in a total well volume of 37.5 μl. Data is collected every second for 60 pictures and then every 6 seconds for 20 pictures prior to the addition of agonist. For hM3 and hM5, before agonist addition, a second baseline reading is taken for 10 seconds followed by the addition of 12.5 μl of agonist or buffer, producing a final volume of 50 μl. After agonist stimulation, the FLIPR continues to collect data every second for 60 pictures and then every 6 seconds for 20 pictures. The fluorescence emission is read using filter 1 (emission 510-570 nm) by the FLIPR on board CCD camera.
Calcium mobilization output data are calculated as the maximal relative fluorescence unit (RFU) minus the minimal value for both compound and agonist reading frame (except for hM1 and rM1 using only the maximal RFU). Data are analyzed using sigmoidal fits of a non-linear curve-fitting program (XLfit version 4.2.2 Excel add-in version 4.2.2 build 18 math 1Q version 2.1.2 build 18). All pEC50 and pIC50 values are reported as arithmetic means±standard error of mean of ‘n’ independent experiments.

| SMILES | EC50 (cloned human M2 receptor) [nM] | EC50 [1] [nM] |
| --- | --- | --- |
| CCC(=O)N1CCC(C)(N2CCC(N3C(=O)N[C@H]4CCCC[C@@H]43)CC2)CC1 [Example 18, (3aS,7aS)-3-[1-(4-methyl-1-propanoyl-4-piperidyl)-4-piperidyl]-3a,4,5,6,7,7a-hexahydro-1H-benzimidazol-2-one] | 2340 | > 40000 |
| CC(C)OC(=O)N1CCC(C)(N2CCC(N3C(=O)N[C@@H]4CCCC[C@H]43)CC2)CC1 [Example 05, Propan-2-yl 4-[4-[(3aR,7aR)-2-oxo-3a,4,5,6,7,7a-hexahydro-3H-benzoimidazol-1-yl]-1-piperidyl]-4-methyl-piperidine-1-carboxylate] | > 14000 | > 49200 |
| C#CCOC(=O)N1CCC(C)(N2CCC(N3C(=O)N[C@H]4CCCC[C@@H]43)CC2)C1 (mixture of isomers) [Example 09, Prop-2-ynyl 3-[4-[(3aS,7aS)-2-oxo-3a,4,5,6,7,7a-hexahydro-3H-benzoimidazol-1-yl]-1-piperidyl]-3-methyl-pyrrolidine-1-carboxylate] | > 1000 | 313 |

Results, then the molecule that gave them:

| EC50 (cloned human M2 receptor) [nM] | EC50 [1] [nM] | SMILES |
| --- | --- | --- |
| 2300 | 1100 | CCOC(=O)N1CCC(C)(N2CCC(N3C(=O)N[C@H]4CCCC[C@@H]43)CC2)C1 (mixture of isomers) [Example 07, Ethyl 3-[4-[(3aS,7aS)-2-oxo-3a,4,5,6,7,7a-hexahydro-3H-benzoimidazol-1-yl]-1-piperidyl]-3-methyl-pyrrolidine-1-carboxylate] |
| 45 | 49.9 | CCOC(=O)N1CCC(C)(N2CCC(N3C(=O)N[C@H]4CCCC[C@@H]43)CC2)CC1 [Example 01, Ethyl 4-[4-[(3aS,7aS)-2-oxo-3a,4,5,6,7,7a-hexahydro-3H-benzoimidazol-1-yl]-1-piperidyl]-4-methyl-piperidine-1-carboxylate] |
